The source of these data is patent publication US20230113037A1 (Bayer Aktiengesellschaft, priority 2019, published 2023).

In experiment [1] the target is T1, AHR (Mus musculus, UniProt P30561).
T1 sequence (P30561 1-848 P471L/N533S/M589L): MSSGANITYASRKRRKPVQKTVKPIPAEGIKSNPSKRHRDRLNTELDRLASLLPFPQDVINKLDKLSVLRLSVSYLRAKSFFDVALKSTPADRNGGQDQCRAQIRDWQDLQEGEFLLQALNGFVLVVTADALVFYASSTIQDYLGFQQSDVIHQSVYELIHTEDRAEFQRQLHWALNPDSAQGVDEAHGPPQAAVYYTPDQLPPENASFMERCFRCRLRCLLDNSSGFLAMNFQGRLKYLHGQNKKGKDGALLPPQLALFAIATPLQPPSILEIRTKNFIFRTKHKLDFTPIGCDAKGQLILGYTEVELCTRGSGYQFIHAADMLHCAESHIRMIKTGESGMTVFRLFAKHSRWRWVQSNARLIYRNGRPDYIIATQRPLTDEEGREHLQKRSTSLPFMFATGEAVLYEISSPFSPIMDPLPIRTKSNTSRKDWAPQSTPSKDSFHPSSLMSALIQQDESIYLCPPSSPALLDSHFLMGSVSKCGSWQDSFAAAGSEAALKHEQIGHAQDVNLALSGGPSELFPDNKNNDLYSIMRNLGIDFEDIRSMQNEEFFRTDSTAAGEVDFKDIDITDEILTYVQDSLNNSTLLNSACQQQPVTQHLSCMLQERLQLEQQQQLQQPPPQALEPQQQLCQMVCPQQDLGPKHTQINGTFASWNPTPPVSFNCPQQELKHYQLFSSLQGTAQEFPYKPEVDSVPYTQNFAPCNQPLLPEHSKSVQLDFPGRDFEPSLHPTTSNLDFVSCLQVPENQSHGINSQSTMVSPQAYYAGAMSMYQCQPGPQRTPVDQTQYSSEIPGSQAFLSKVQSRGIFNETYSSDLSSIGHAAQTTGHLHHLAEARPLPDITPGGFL
Description: In vitro assay 3: antagonism in mouse cell line (AHR transactivation, firefly luciferase reporter, kynurenic acid prestimulated). Format: cell-based. Summed up:
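Antagonism read as reduced firefly luciferase signal (SteadyGlo) from a stably transfected AHR/DRE reporter in a mouse line prestimulated with kynurenic acid. Data normalized to controls, the full-inhibition control being cells without kynurenic acid; multiple determinations given as average or median values.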
Background: In a reporter assay the amount or activity of a reporter protein is the signal.

In experiment [2] the target is T2, AHR (Homo sapiens, UniProt P35869).
T2 construct: U87 MG glioblastoma cells (ATCC #HTB-14) endogenously expressing AHR; endogenous in cells; host or cells: U87 MG glioblastoma cells (ATCC #HTB-14)
T2 sequence (P35869 11-848): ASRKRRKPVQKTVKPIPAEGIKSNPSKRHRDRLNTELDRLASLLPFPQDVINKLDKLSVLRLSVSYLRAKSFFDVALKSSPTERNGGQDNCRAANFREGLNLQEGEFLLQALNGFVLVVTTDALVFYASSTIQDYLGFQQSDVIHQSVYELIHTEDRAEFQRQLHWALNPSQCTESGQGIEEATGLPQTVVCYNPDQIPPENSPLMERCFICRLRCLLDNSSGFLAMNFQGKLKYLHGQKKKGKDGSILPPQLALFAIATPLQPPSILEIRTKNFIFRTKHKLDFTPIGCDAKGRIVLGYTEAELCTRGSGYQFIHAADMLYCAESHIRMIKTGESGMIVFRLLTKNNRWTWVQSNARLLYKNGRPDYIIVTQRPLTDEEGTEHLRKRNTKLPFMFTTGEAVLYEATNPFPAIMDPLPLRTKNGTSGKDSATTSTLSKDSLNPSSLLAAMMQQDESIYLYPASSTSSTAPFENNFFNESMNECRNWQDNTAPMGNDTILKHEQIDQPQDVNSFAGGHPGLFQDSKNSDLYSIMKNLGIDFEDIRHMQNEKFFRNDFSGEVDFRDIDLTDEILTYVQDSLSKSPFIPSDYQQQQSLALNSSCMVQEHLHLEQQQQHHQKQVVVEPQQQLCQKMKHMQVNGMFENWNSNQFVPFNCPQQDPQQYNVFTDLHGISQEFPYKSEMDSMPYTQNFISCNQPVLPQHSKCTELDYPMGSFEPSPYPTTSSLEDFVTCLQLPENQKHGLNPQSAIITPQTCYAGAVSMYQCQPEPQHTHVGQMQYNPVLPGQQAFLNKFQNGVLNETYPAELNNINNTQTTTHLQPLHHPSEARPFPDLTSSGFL
Nature of the experiment: In vitro assay 1: antagonism in human cell line (AHR transactivation, firefly luciferase reporter, kynurenic acid prestimulated). The experiment is classed as cell-based. The settings on record: AHR Antagonism Human IC50 [M]. Summed up:
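Antagonism is measured against kynurenic acid prestimulation in U87 MG glioblastoma cells carrying stable DRE-luciferase and Renilla reporters. Positive inhibition control: 150 μM kynurenic acid with 5 μM staurosporine. Values are normalized to controls; repeats are averaged or given as medians.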

Setting [3] is: mouse Hepa 1c1c7 cells, 200 μM kynurenic acid, 20 hours, read-out: AHR Antagonism Mouse IC50.
Setting [4] is: read-out: AHR Antagonism Mouse IC50, mouse Hepa 1c1c7 cells, 200 μM kynurenic acid, 20 hours.

Molecules are shown by their SMILES. Read-outs that look alike come from different tables or passages of the source. Where only a bound is given, the exact number is not on record here.

The term IC50 denotes the midpoint of a concentration-inhibition curve.

As to `O=C1NCCCC[C@H]1Nc1nc2ccccc2c2nc(-c3nc(C(F)(F)F)no3)nn12` [Example 136, (3R)-3-({2-[3-(trifluoromethyl)-1,2,4-oxadiazol-5-yl][1,2,4]triazolo[1,5-c]quinazolin-5-yl}amino)azepan-2-one], the IC50 amounted to 9.58 nM at AHR [1] (setting [3]) and 3.09e-08 M against AHR [2].

Turning to `O=C1NCCCC[C@H]1Nc1nc2c(F)cccc2c2nc(-c3cccc(F)c3)nn12` [Example 137, (3R)-3-{[7-fluoro-2-(3-fluorophenyl)[1,2,4]triazolo[1,5-c]quinazolin-5-yl]amino}azepan-2-one], the IC50 turned out to be 0.823 nM on AHR [1] (setting [4]) and 2.16e-09 M at AHR [2].

For the molecule `COc1ccc(-c2nc3c4cccc(F)c4nc(N[C@@H]4CCCCNC4=O)n3n2)cc1` [Example 138, (3R)-3-{[7-fluoro-2-(4-methoxyphenyl)[1,2,4]triazolo[1,5-c]quinazolin-5-yl]amino}azepan-2-one], the figures for the IC50 on AHR [1] (setting [3]) and on AHR [2] were 1.45 nM and 7.41e-10 M, respectively.

Consider `COc1cccc(-c2nc3c4cccc(C)c4nc(N[C@@H]4CCCCNC4=O)n3n2)c1` [Example 140, (3R)-3-{[2-(3-methoxyphenyl)-7-methyl[1,2,4]triazolo[1,5-c]quinazolin-5-yl]amino}azepan-2-one], for which the IC50 on AHR [1] (setting [3]) amounted to 1.08 nM; against AHR [2], 1.09e-09 M.

On to `COc1cccc(-c2nc3c4cccc(C)c4nc(N[C@H]4CCCCNC4=O)n3n2)c1` [Example 141], for which the half-maximal inhibitory concentration (IC50) was determined as 83.2 nM at AHR [1] (setting [3]) and 2.84e-08 M at AHR [2].

Turning to `Cc1cccc2c1nc(N[C@@H]1CCCCNC1=O)n1nc(-c3cnn(C)c3)nc21` [Example 142, (3R)-3-{[7-methyl-2-(1-methyl-1H-pyrazol-4-yl)[1,2,4]triazolo[1,5-c]quinazolin-5-yl]amino}azepan-2-one], the IC50 on AHR [1] (setting [3]) stood at 21.1 nM; on AHR [2], 2.15e-09 M.

With `COc1ccc(-c2nc3c4cccc(C)c4nc(N[C@@H]4CCCCNC4=O)n3n2)cc1` [Example 143], the IC50 on AHR [1] (setting [3]) was 0.884 nM; against AHR [2] it was 2.42e-10 M.

For the molecule `COc1ccc(-c2nc3c4cccc(C)c4nc(N[C@H]4CCCCNC4=O)n3n2)cc1` [Example 144], the values for the IC50 at AHR [1] (setting [3]) and on AHR [2] were 62.7 nM and > 2e-06 M, respectively.

As to `COc1cccc(-c2nc3c4ccc(F)cc4nc(N[C@@H]4CCCCNC4=O)n3n2)c1` [Example 148, (3R)-3-{[8-fluoro-2-(3-methoxyphenyl)[1,2,4]triazolo[1,5-c]quinazolin-5-yl]amino}azepan-2-one], the IC50 on AHR [1] (setting [3]) was 2.41 nM; against AHR [2], 8.12e-07 M.

For `COc1cccc(-c2nc3c4ccc(F)cc4nc(N[C@H]4CCCCNC4=O)n3n2)c1` [Example 150, (3S)-3-{[8-fluoro-2-(3-methoxyphenyl)[1,2,4]triazolo[1,5-c]quinazolin-5-yl]amino}azepan-2-one], the IC50 at AHR [1] (setting [3]) was found to be 48.8 nM; against AHR [2] it was 1.97e-07 M.

`COc1cccc(-c2nc3c4ccc(F)cc4nc(N[C@H]4CCCNC4=O)n3n2)c1` [Example 151, (3S)-3-{[8-fluoro-2-(3-methoxyphenyl)[1,2,4]triazolo[1,5-c]quinazolin-5-yl]amino}piperidin-2-one]: the IC50 amounted to 343 nM on AHR [1] (setting [3]) and 2.36e-06 M on AHR [2].

Consider `COc1cccc(-c2nc3c4ccc(F)cc4nc(N[C@@H]4CCNC4=O)n3n2)c1` [Example 152, (3R)-3-{[8-fluoro-2-(3-methoxyphenyl)[1,2,4]triazolo[1,5-c]quinazolin-5-yl]amino}pyrrolidin-2-one], for which the IC50 stood at 353 nM on AHR [1] (setting [3]) and 5.28e-08 M at AHR [2].

In the case of `COc1ccc(-c2nc3c4ccc(F)cc4nc(N[C@@H]4CCCCNC4=O)n3n2)cc1` [Example 153, (3R)-3-{[8-fluoro-2-(4-methoxyphenyl)[1,2,4]triazolo[1,5-c]quinazolin-5-yl]amino}azepan-2-one], the IC50 on AHR [1] (setting [3]) was 1.18 nM; against AHR [2], 4.35e-10 M.

In the case of `COc1cccc(-c2nc3c4cc(C)ccc4nc(N[C@@H]4CCCCNC4=O)n3n2)c1` [Example 154, (3R)-3-{[2-(3-methoxyphenyl)-9-methyl[1,2,4]triazolo[1,5-c]quinazolin-5-yl]amino}azepan-2-one], the figures for the IC50 at AHR [1] (setting [3]) and against AHR [2] were 1.16 nM and 2.18e-09 M, respectively.

Turning to `Cc1ccc2nc(N[C@@H]3CCCCNC3=O)n3nc(-c4cnn(C)c4)nc3c2c1` [Example 158, (3R)-3-{[9-methyl-2-(1-methyl-1H-pyrazol-4-yl)[1,2,4]triazolo[1,5-c]quinazolin-5-yl]amino}azepan-2-one], the IC50 at AHR [1] (setting [3]) was determined as 32.2 nM; at AHR [2], 1.77e-08 M.

On to `COc1cccc(-c2nc3c4cc(F)ccc4nc(N[C@@H]4CCCCNC4=O)n3n2)c1` [Example 159, (3R)-3-{[9-fluoro-2-(3-methoxyphenyl)[1,2,4]triazolo[1,5-c]quinazolin-5-yl]amino}azepan-2-one], for which the IC50 worked out at 0.227 nM on AHR [1] (setting [3]) and 1.03e-09 M at AHR [2].

As for `COc1cccc(-c2nc3c4cc(F)ccc4nc(N[C@H]4CCCCNC4=O)n3n2)c1` [Example 160, (3S)-3-{[9-fluoro-2-(3-methoxyphenyl)[1,2,4]triazolo[1,5-c]quinazolin-5-yl]amino}azepan-2-one], the IC50 is 15.4 nM on AHR [1] (setting [3]) and 1.43e-07 M against AHR [2].

As for `COc1cccc(-c2nc3c4cc(F)ccc4nc(NC4CCNC4=O)n3n2)c1` (stereo not shown) [Example 162, 3-{[9-fluoro-2-(3-methoxyphenyl)[1,2,4]triazolo[1,5-c]quinazolin-5-yl]amino}pyrrolidin-2-one], the concentration for half-maximal inhibition (IC50) on AHR [1] (setting [3]) came to 25.5 nM; on AHR [2], 2.23e-08 M.

`COc1ccc(-c2nc3c4c(Br)cccc4nc(N[C@@H]4CCCCNC4=O)n3n2)cc1` [Example 164]: the IC50 worked out at 4.54 nM on AHR [1] (setting [3]) and 2.44e-09 M at AHR [2].

For `Cn1cc(-c2nc3c4c(Br)cccc4nc(N[C@@H]4CCCCNC4=O)n3n2)cn1` [Example 165, (3R)-3-{[10-bromo-2-(1-methyl-1H-pyrazol-4-yl)[1,2,4]triazolo[1,5-c]quinazolin-5-yl]amino}azepan-2-one], the concentration for half-maximal inhibition (IC50) was determined as 98.6 nM on AHR [1] (setting [3]) and 1.65e-08 M on AHR [2].

For the molecule `COc1ccc(-c2nc3c4c(Cl)cccc4nc(N[C@@H]4CCCCNC4=O)n3n2)cc1` [Example 168, (3R)-3-{[10-chloro-2-(4-methoxyphenyl)[1,2,4]triazolo[1,5-c]quinazolin-5-yl]amino}azepan-2-one], the IC50 at AHR [1] (setting [3]) was 2.21 nM; against AHR [2], 9.09e-10 M.

With `Cn1cc(-c2nc3c4c(Cl)cccc4nc(N[C@@H]4CCCCNC4=O)n3n2)cn1` [Example 169, (3R)-3-{[10-chloro-2-(1-methyl-1H-pyrazol-4-yl)[1,2,4]triazolo[1,5-c]quinazolin-5-yl]amino}azepan-2-one], the values for the IC50 on AHR [1] (setting [4]) and against AHR [2] were 118 nM and 7.27e-09 M, respectively.

As for `COc1ccc(-c2nc3c4c(C(F)(F)F)cccc4nc(N[C@@H]4CCCCNC4=O)n3n2)cc1` [Example 172, (3R)-3-{[2-(4-methoxyphenyl)-10-(trifluoromethyl)[1,2,4]triazolo[1,5-c]quinazolin-5-yl]amino}azepan-2-one], the IC50 on AHR [1] (setting [3]) was determined as 12 nM; on AHR [2], 1.29e-08 M.
